{"source": "patent US4239780A", "about": "“Phospholipase A2 inhibition” (The Upjohn Company, priority 1979, dated 1980)", "origin": "cited, not measured here", "test_system": "phospholipase A2 from venom of Russel Viper", "details": "enzyme from Russel Viper venom; cited from earlier work"}
{"smiles": "COc1ccc2c(c1)c(CC(=O)O)c(C)n2C(=O)c1ccc(Cl)cc1", "note": "[indomethacin, Indomethacin]", "values": [{"measurement": "inhibition of phospholipase A2", "value": "inactive"}]}
